Here are results for two molecules from patent publication US12263226B1, “Neratinib-cyclodextrin composition and method for preparing same” (Hangzhou Jitai Pharmaceutical Technology Co., Ltd, priority 2024, dated 2025).

Like-named read-outs stand apart in the source and are kept apart here. Where only a bound is given, the exact number is not on record here.

The term bioavailability denotes the share of a dose that reaches the circulation, judged against a reference dose that is usually intravenous.

The conditions of series [1]: cited from earlier work.
The procedure of series [2]:
Preparation of FaSSIF solution (fasted state simulated intestinal fluid, pH 6.5): 0.42 g of NaOH, 3.44 g of NaH2PO4, and 6.19 g of NaCl were added into a beaker before 900 mL of purified water was added. The pH was adjusted and the volume was brought to 1 L with purified water. 2.24 g of FaSSIF powder was added into the 1-L buffer.
Solubility measurement: 400 μL of the FaSSIF solution was added into a scintillation flask, and a small amount of the neratinib-cyclodextrin composition powder was gradually added at room temperature with magnetic stirring until a precipitate was observed. The addition amount of the powder was recorded. The solubility of neratinib maleate was calculated from the loading amount of the powder. Dissolution measurement of the neratinib maleate substance (API): 400 μL of the FaSSIF solution was added into a scintillation flask. An excessive amount of neratinib maleate substance was added.

As for `CCOc1cc2ncc(C#N)c(Nc3ccc(OCc4ccccn4)c(Cl)c3)c2cc1NC(=O)/C=C/CN(C)C` [neratinib, (E)-N-[4-[3-chloro-4-(pyridin-2-ylmethoxy)anilino]-3-cyano-7-ethoxyquinolin-6-yl]-4-(dimethylamino) but-2-enamide], the bioavailability in series [1] (fasting conditions in humans) is below 17%. Also, the “decrease of area under curve (AUC) without the high-fat meal” value in series [1] (humans, approved tablet) is on record as 2.2 times.

Turning to neratinib maleate, the “solubility of neratinib maleate” value was 7.4 µg/mL in series [2] (FaSSIF, excess substance, stirred at room temperature 48 h, supernatant by HPLC) and 7.4 µg/mL in series [2] (neutral conditions (pH 6.5)).
